Data taken from ChEMBL document CHEMBL1134695, “Synthesis and evaluation of novel quinolinones as HIV-1 reverse transcriptase inhibitors” (Bioorg Med Chem Lett, 2001).
pIC50: −log10 of the molar value.

Columns and labels:
[1] = test system: Human immunodeficiency virus 1; assay: Antiviral activity against HIV-1 using antiinfectivity assay; assay type: functional, organism-based
[2] = target: Human immunodeficiency virus type 1 reverse transcriptase (Human immunodeficiency virus 1, UniProt Q72547); assay: Inhibition of HIV-1 reverse transcriptase.
[3] = target: Human immunodeficiency virus type 1 reverse transcriptase (Human immunodeficiency virus 1) (UniProt Q72547)
[4] = test system: Human immunodeficiency virus type 1 reverse transcriptase (Human immunodeficiency virus 1), Q72547 [K103N]
[5] = test system: Human immunodeficiency virus type 1 reverse transcriptase (Human immunodeficiency virus 1), Q72547 [UNDEFINED MUTATION]

Structure (SMILES)	IC90 [1] [nM]	pIC50 [2]	IC90 [3] [nM]	IC90 [4] [nM]	C90 [5] [µM]
O=C1Nc2ccc(Cl)cc2[C@@](C#CC2CC2)(C(F)(F)F)[C@H]1OCc1ccccn1	140	5.80	–	–	–
O=C1Nc2ccc(Cl)cc2[C@@](C#CC2CC2)(C(F)(F)F)[C@H]1OCc1cccc(F)c1	201	5.75	–	–	–
O=C1Nc2ccc(Cl)cc2[C@@](C#CC2CC2)(C(F)(F)F)[C@H]1OCc1ccc(F)cc1	112	6.05	–	–	–
CC(C)=CCO[C@H]1C(=O)Nc2ccc(Cl)cc2[C@@]1(C#CC1CC1)C(F)(F)F	> 1000	< 5.70	–	–	–
Nc1ccccc1CO[C@H]1C(=O)Nc2ccc(Cl)cc2[C@@]1(C#CC1CC1)C(F)(F)F	115	5.99	–	–	–
O=C1Nc2ccc(Cl)cc2[C@@](C#CC2CC2)(C(F)(F)F)[C@H]1OCC1CC1	130	5.84	–	–	–
O=C1C[C@](C#CC2CC2)(C(F)(F)F)c2cc(Cl)ccc2N1	14	6.89	992	1770	–
O=C1Nc2ccc(Cl)cc2[C@@](C#CC2CC2)(C(F)(F)F)[C@H]1NCc1ccccc1	218	< 5.70	–	–	–
O=C1Nc2ccc(Cl)cc2[C@@](C#CC2CC2)(C(F)(F)F)[C@H]1OCc1ccccc1	71	6.36	–	–	–
Nc1cccc(CO[C@H]2C(=O)Nc3ccc(Cl)cc3[C@@]2(C#CC2CC2)C(F)(F)F)c1	138	5.84	–	–	–
O=C1Nc2ccc(Cl)cc2[C@@](C#CC2CC2)(C(F)(F)F)[C@H]1O	637	< 5.70	–	–	–
O=C1Nc2ccc(Cl)cc2[C@@](C#CC2CC2)(C(F)(F)F)[C@H]1OCc1cccnc1	20	6.36	–	–	–
CC(=O)N[C@H]1C(=O)Nc2ccc(Cl)cc2[C@@]1(C#CC1CC1)C(F)(F)F	917	< 5.70	–	–	–
Nc1ccc(CO[C@H]2C(=O)Nc3ccc(Cl)cc3[C@@]2(C#CC2CC2)C(F)(F)F)cc1	21	6.39	49	1080	3.85
O=C1Nc2ccc(Cl)cc2[C@@](C#CC2CC2)(C(F)(F)F)[C@H]1OCc1ccccc1F	140	5.89	–	–	–
CCCO[C@H]1C(=O)Nc2ccc(Cl)cc2[C@@]1(C#CC1CC1)C(F)(F)F	62	5.98	–	–	–
COC(=O)N[C@H]1C(=O)Nc2ccc(Cl)cc2[C@@]1(C#CC1CC1)C(F)(F)F	212	< 5.70	–	–	–
O=C1Nc2ccc(Cl)cc2[C@@](C#CC2CC2)(C(F)(F)F)[C@H]1OCc1ccncc1	19	6.89	23	50	4.83
Nc1ccc(CO[C@H]2C(=O)Nc3ccc(Cl)cc3[C@@]2(C#CC2CC2)C(F)(F)F)cc1F	26	6.62	–	–	–
